Consider three compounds from patent US4320052A, “Derivatives of A-30912A nucleus” (Eli Lilly and Company, priority 1980, dated 1982).

≈ marks a conversion by molar mass, not a printed value. Where two headings read alike, the source gives them in different places. Numbered stars: 1 amine (or outer) side, 2 acyl side, 3 side chain; on linkers, the order of the positions; unused ones are H or OH. Bridge positions count the residues as written; N and C are the ends. Square brackets hold non-standard residues; d marks the D form. Peptide text beside a SMILES is read from it. * marks the point of attachment. Orn(4R-OH,5R-OH) = O=C([C@H](C[C@@H](O)[C@@H](O)N[*:3])N[*:1])[*:2]; hTyr(3S-OH,4S-OH) = N[C@H](C(=O)O)[C@H](O)[C@@H](O)c1ccc(O)cc1; Pro(3S-OH,4S-Me) = C[C@H]1CN[C@H](C(=O)O)[C@H]1O; X1 = CC/C=C\C/C=C\C/C=C\CCCCCCCC(=O)*; X2 = CCCCC/C=C/C/C=C/CCCCCCCC(=O)*; Hyp = O=C(O)[C@@H]1C[C@@H](O)CN1; Tridecanoyl = CCCCCCCCCCCCC(=O)*

The test system of series [1] is Candida albicans A-26. The series is described as follows: Agar plate disc diffusion test (MIC). It counts as cell-based. The settings on record: 0.01M sodium borate pH 7.5; 20 μg/disc top, twofold dilutions; 24 hours, 30° C. As to the method: (§1) Tables II and III give the results of the testing in vitro of the compounds of Examples 1-16 by agar-plate disc-diffusion methods. In Table II activity is measured by the size (diameter in mm.) of the observed zone of inhibition of the microorganism produced by the test compound. In Table III, activity is measured by the minimal inhibitory concentration (MIC) of the substance (μg/dic) required to inhibit growth of the test organism. Table IV gives the results of the testing in vitro of the n-tridecanoyl derivative of A30912A nucleus (Formula III, R is n-C12 H25) against five strains of Candida albicans by the agar dilution method. In […] activity is measured by the minimal inhibitory concentration (MIC) of the substance (μg/ml) required to inhibit the test organism.
(§2) *Compounds were suspended in 0.01M sodium borate solution, pH 7.5. The
(§3) compounds were tested at 20 μg/disc at top level and at twofold
(§4) dilutions until end points were reached. Incubation: 24 hours; 30°
(Agar diffusion results depend on both activity and mobility in agar.)

Series [2] relates to Trichophyton mentagrophytes #6. Description: Agar plate disc diffusion test (MIC). It counts as cell-based. The conditions noted are these: 0.01M sodium borate pH 7.5; 20 μg/disc top, twofold dilutions; 24 hours, 30° C. As to the method:
as §1, §2, §3, §4

Series [3] relates to Candida albicans. Description: Agar dilution test against strains of Candida albicans (MIC). It counts as cell-based. As to the method:
as §1
For orientation: In agar dilution the substance is mixed into plates at graded concentrations.

A short description of series [4]: Blood levels after oral administration in mice (bioassay vs. Aspergillus montevidensis A35137). The settings on record: mouse, in vivo; for concentration at 4 h: po. The source says: determined by bioassay vs. Aspergillus montevidensis A35137.
Series [5] deals with Candida albicans A-26. Description: In vivo activity against Candida albicans A-26 infection in mice. The settings on record: Candida albicans, A26, sc, 24 h; for minimal effective dose: read-out: Lowest Active Dose. Details: species or system mice infected with Candida albicans A-26. As to the method:
The results of in vivo tests to evaluate the effectiveness of the compound of Examples 1-16 against an infection caused by Candida albicans A-26 in mice are given in Table V, where activity is measured by the ED50 value (the dose in mg/kg. required to cure 50% of the test animals). Where an ED50 value was not obtained, activity is indicated by the lowest dose at which a significant anti-fungal effect is observed. In this test, groups of male albino mice (specific pathogen free), weighing 18 to 20 grams, are infected intravenously with Candida albicans A-26. The animals are X-irradiated 24 hours prior to infection at about 50 roentgens per minute for 8 minutes (400 total dose) to reduce immune responses to the infecting organism. At 0, 4, and 24 hours post infection each group of mice is given graded doses subcutaneously of the test compound as a suspension in 33% polyethylene glycol-water. The day of death for each animal is recorded.
mg/kg. Dosages given 0, 4, and 24 hours post injection as suspension of
test compound in 30% PEG--H2 O. Number of mice receiving test
compounds at each dosage level; 6 mice per group. Number of mice in
control (untreated) group: 10 mice per group.
**As measured by increase in survival time of treated animals versus
control, calculated by method of Reed v Mueuch, American J. Hygiene, 27,

Series [6] can be described thus: Toxicity in dog, intravenous administration. It counts as in vivo. The conditions noted are these: 100 mg/kg per day for five days.
In series [7] the test system is Trichophyton mentagraphytes A-23. The series is described as follows: Agar plate disc diffusion test (zone of inhibition). It counts as cell-based, Trichophyton mentagrophytes. As to the method:
as §1
(§5) ^(a) Compounds were tested as suspension in methanol at a
(§6) concentration of 1 mg/ml. by dipping a 7mm disc into the suspension and
(§7) placing it on the agar surface. Incubation: 24-48 hours at 25-37°

Series [8] has as its system Candida albicans A-26. Described as above. It counts as cell-based. The conditions noted are these: suspension in methanol 1 mg/ml, 7mm disc; 24-48 hours at 25-37° C. As to the method: as §1, §5, §6, §7
Series [9] relates to Neurospora crassa 846. The description is as above. It counts as cell-based. As to the method: as §1, §5, §6, §7
Series [10] concerns Saccharomyces pastoranius X-52. Described as above. It counts as cell-based, Saccharomyces pastorianus. As to the method: as §1, §5, §6, §7
Setting [11] is: mice, subcutaneous, schedule A (40, 20, 15, and 10 mg/kg), 0, 4, 24 hours, increase in survival time, read-out: ED50.
The mark [12] stands for this setting: mice, subcutaneous, schedule A (40, 20, 15, and 10 mg/kg), 0, 4, 24 hours.
Setting [13] is: A23, suspension in methanol 1 mg/ml, 7mm disc, 24-48 hours at 25-37° C., read-out: Size of zone of inhibition, Trichophyton mentagraphytes A-23.
Setting [14] is: Neurospora crassa, 846, suspension in methanol 1 mg/ml, 7mm disc, *distinct measurable zone of inhibition with regrowth of organism around disc, read-out: Size of zone of inhibition, Neurospora crassa 846 (*).
Where [15] appears, read: X52, suspension in methanol 1 mg/ml, 7mm disc, 24-48 hours at 25-37° C., read-out: Size of zone of inhibition, Saccharomyces pastoranius X-52.

On to `CCCCCCCCCCCCC(=O)N[C@H]1C[C@@H](O)[C@@H](O)NC(=O)[C@@H]2[C@@H](O)[C@@H](C)CN2C(=O)[C@H]([C@@H](C)O)NC(=O)[C@H]([C@H](O)[C@@H](O)c2ccc(O)cc2)NC(=O)[C@@H]2C[C@@H](O)CN2C(=O)[C@H]([C@@H](C)O)NC1=O` [Example 2, n-Tridecanoyl Derivative of A-30912A Nucleus] (Tridecanoyl-[Orn(4R-OH,5R-OH)]T[Hyp][hTyr(3S-OH,4S-OH)]T[Pro(3S-OH,4S-Me)]; lactam 1-C), for which the “MIC, Candida albicans A-26” value in series [1] is recorded as 0.625 μg/disc. Also, the “MIC, Trichophyton mentagrophytes #6” value in series [2] amounted to 0.039 μg/disc. Besides, the MIC in [3] (read-out: MIC, Candida albicans A26) stood at 0.312 µg/mL (≈ 0.314 µM); in series [3] (strain SBH 16, agar dilution, read-out: MIC, Candida albicans SBH 16) it was 0.625 µg/mL (≈ 0.629 µM); in series [3] (strain SBH 28, agar dilution, read-out: MIC, Candida albicans SBH 28) it was 0.625 µg/mL (≈ 0.629 µM); in [3] (strain SBH 29, agar dilution, read-out: MIC, Candida albicans SBH 29), 0.625 µg/mL (≈ 0.629 µM); in series [3] (strain SBH 31, agar dilution, read-out: MIC, Candida albicans SBH 31), 0.625 µg/mL (≈ 0.629 µM). In addition, the concentration at 4 h in series [4] (four hours after 416 mg/kg by gavage, suspension in 33% PEG 400-H2O, read-out: Blood Levels After Oral Administration In Mice) turned out to be 100 ng/mL. For the same compound, the 50% effect level in [5] (ED50) was put at a dose of 34 mg/kg. The minimal effective dose in series [5] is 20 mg/kg. The SGPT levels result in series [6] is listed as “increased SGPT levels”. Further, the hemolysis result in series [6] is recorded as “evidence of hemolysis”. In series [6], the “outward signs of toxicity” value is reported as “no outward signs of toxicity”. Also, the zone of inhibition at 1000 µg/mL in series [7] (A23, read-out: Size of zone of inhibition, Trichophyton mentagraphytes A-23 (*)) was found to be 60 mm; in series [9] (Neurospora crassa, 846, read-out: Size of zone of inhibition, Neurospora crassa 846 (*)) it was 32 mm; in series [10] (X52, read-out: Size of zone of inhibition, Saccharomyces pastoranius X-52), 21 mm. In series [8], the “Size of zone of inhibition, Candida albicans A-26” value (“Size of zone of inhibition” below) worked out at 30 mm.
In the case of `CCCCC/C=C/C/C=C/CCCCCCCC(=O)N[C@H]1C[C@@H](O)[C@@H](O)NC(=O)[C@@H]2[C@@H](O)[C@@H](C)CN2C(=O)[C@H]([C@@H](C)O)NC(=O)[C@H]([C@H](O)[C@@H](O)c2ccc(O)cc2)NC(=O)[C@@H]2C[C@@H](O)CN2C(=O)[C@H]([C@@H](C)O)NC1=O` [Example 10] (X2-[Orn(4R-OH,5R-OH)]T[Hyp][hTyr(3S-OH,4S-OH)]T[Pro(3S-OH,4S-Me)]; lactam 1-C), the “MIC, Candida albicans A-26” value in series [1] worked out at 0.156 μg/disc. In addition, the “MIC, Trichophyton mentagrophytes #6” value in [2] is on record as < 0.039 μg/disc. The compound also had a concentration at 4 h in [4] (416 mg/kg) of 610 ng/mL. The ED50 in series [5] (setting [11]) came to 16 mg/kg. In addition, the minimal effective dose in [5] (setting [12]) came to 10 mg/kg. Also, the values for the zone of inhibition at 1000 µg/mL in series [7] (setting [13]), in series [9] (setting [14]) and in series [10] (setting [15]) were 36 mm, 26 mm and 24 mm, respectively. Further, the “Size of zone of inhibition” value in [8] is recorded as 24 mm.
Regarding `CC/C=C\C/C=C\C/C=C\CCCCCCCC(=O)N[C@H]1C[C@@H](O)[C@@H](O)NC(=O)[C@@H]2[C@@H](O)[C@@H](C)CN2C(=O)[C@H]([C@@H](C)O)NC(=O)[C@H]([C@H](O)[C@@H](O)c2ccc(O)cc2)NC(=O)[C@@H]2C[C@@H](O)CN2C(=O)[C@H]([C@@H](C)O)NC1=O` [Example 11] (X1-[Orn(4R-OH,5R-OH)]T[Hyp][hTyr(3S-OH,4S-OH)]T[Pro(3S-OH,4S-Me)]; lactam 1-C), the “MIC, Candida albicans A-26” value in series [1] was found to be 1.25 μg/disc. Moreover, the “MIC, Trichophyton mentagrophytes #6” value in series [2] stood at 0.039 μg/disc. For the same compound, the “Blood Levels After Oral Administration In Mice” value in series [4] (240 min) came to 0 ng/mL. In series [5] (setting [11]), the ED50 was > 40 mg/kg. In addition, the minimal effective dose in series [5] (setting [12]) was > 40 mg/kg. Moreover, the zone of inhibition at 1000 µg/mL came out at 36 mm in series [7] (setting [13]), 33 mm in [9] (setting [14]) and 16 mm in series [10] (setting [15]). The “Size of zone of inhibition” value in [8] stood at 30 mm.

A word on the MIC: it is the lowest concentration that inhibits growth of the organism. Usually ED50 stands for the dose that gives a 50% effect, or the effect in half of the subjects. The term zone of inhibition denotes the extent of the growth-free halo in a diffusion test.
